Assays:
[1] = Dissociation constant, pKa of the compound by pressure-assisted capillary electrophoretic method; format: physicochemical
in vitro = conditions: human, Caco-2
[2] = Ratio of free drug concentration in brain to free drug concentration in plasma in C57BL/6 mouse at 100 umol/kg, po at […]; format: ADME, organism-based; conditions: brain and plasma, read-out: K(p,uu,brain)
Brain [3] = assay: Free drug concentration in C57BL/6 mouse brain at 100 umol/kg, po at […]; format: ADME, organism-based; conditions: in vivo
[4] = Drug uptake in C57BL/6 mouse brain at 100 umol/kg, po at […]; format: ADME, organism-based; conditions: read-out: Drug uptake
Plasma [5] = assay: Free plasma concentration in C57BL/6 mouse at 100 umol/kg, po at […]; format: ADME, organism-based; conditions: in vivo
[6] = Plasma concentration in C57BL/6 mouse at 100 umol/kg, po at […]; format: ADME, organism-based
[7] = Ratio of free drug concentration in brain to free drug concentration in plasma in guinea pig; format: ADME, Cavia porcellus; conditions: brain and plasma, read-out: K(p,uu,brain)
[8] = Ratio of free drug concentration in brain to free drug concentration in plasma in C57BL/6 mouse at 30 umol/kg, iv at […]; format: ADME, organism-based; conditions: brain and plasma, read-out: K(p,uu,brain)
Brain [9] = assay: Free drug concentration in C57BL/6 mouse brain at 30 umol/kg, iv at […]; format: ADME, organism-based; conditions: in vivo
[10] = Drug uptake in C57BL/6 mouse brain at 30 umol/kg, iv at […]; format: ADME, organism-based; conditions: read-out: Drug uptake
Plasma [11] = assay: Free plasma concentration in C57BL/6 mouse at 30 umol/kg, iv at […]; format: ADME, organism-based; conditions: in vivo
[12] = Plasma concentration in C57BL/6 mouse at 30 umol/kg, iv at […]; format: ADME, organism-based
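For logD in this document: lipophilicity determined by reversed-phase HPLC.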

Row | SMILES | pKa [1] | logD (physchem) | Papp A→B at 10 µM (in vitro) [×10⁻⁶ cm/s] | also measured
1 | CC1=NC(C)(c2cccc(-c3cccnc3)c2)N=C1N (configuration not stated) | 6.7 | 0.2 | 30 | –
2 | COc1cccc(-c2cccc(C3(C4CCN(C(C)=O)CC4)N=C(C)C(N)=N3)c2)c1 (configuration not stated) | 5.7 | – | – | –
3 | CC#Cc1cncc(-c2cccc(C3(c4cc(C)c(OC)c(C)c4)N=C(C)C(N)=N3)c2)c1 (configuration not stated) | – | 3.7 | 12 | –
4 | COc1cccc(-c2cccc(C3(C4CCOCC4)N=C(C)C(N)=N3)c2)c1 (configuration not stated) | 6 | 2.5 | 22 | –
5 | COc1ccc(C2(c3cccc(-c4cncnc4)c3)N=C(C)C(N)=N2)cc1 (configuration not stated) | 5.2 | 1.1 | 21 | –
6 | CC#Cc1ccnc(-c2cc(C3(C4CC4)N=C(C)C(N)=N3)ccc2O)c1 (configuration not stated) | – | 2.9 | 19 | –
7 | COc1cccc(-c2cccc(C3(c4ccncc4)N=C(C)C(N)=N3)c2)c1 (configuration not stated) | – | – | 40 | –
8 | CC#Cc1cncc(-c2cc(C3(C4CC4)N=C(C)C(N)=N3)ccc2O)c1 (configuration not stated) | 5.9 | 1.2 | 2 | –
9 | CC1=NC(c2cccc(-c3cccnc3)c2)(C2CCCCC2)N=C1N (configuration not stated) | 6.2 | 2.6 | 41 | –
10 | COc1c(C)cc([C@@]2(c3cccc(-c4cncnc4)c3)N=C(C)C(N)=N2)cc1C | 5.2 | 1.8 | 22 | Kp uu at […] [2]: 0.05; Drug uptake(free) (Brain [3]): 19 nmol/L; concentration at […] [4]: 230 nM; Cp(f) (Plasma [5]): 490 nM; concentration at […] [6]: 4500 nM; Kp uu [7]: 0.16
11 | CC1=N[C@@](Cc2ccccc2)(c2cccc(-c3cncnc3)c2)N=C1N | 6 | 1.2 | 31 | –
12 | CC(C)C1=NC(C)(c2cccc(-c3cccnc3)c2)N=C1N (configuration not stated) | 5.9 | 1.1 | 38 | –
13 | CC1(c2cccc(-c3cccnc3)c2)N=C(N)C(c2ccccc2)=N1 (configuration not stated) | 5.4 | 2.1 | 46 | –
14 | CC1=NC(c2ccccc2)(c2cccc(-c3cccnc3)c2)N=C1N (configuration not stated) | – | 1.8 | – | –
15 | COc1cccc(-c2cccc(C3(C)N=C(C)C(N)=N3)c2)c1 (configuration not stated) | 6.5 | 2.2 | 34 | –
16 | CC#Cc1cncc(-c2cccc(C3(C4CC4)N=C(C)C(N)=N3)c2)c1 (configuration not stated) | 5.8 | 2.3 | 27 | Kp uu at […] [8]: 0.07; Drug uptake(free) (Brain [9]): 21 nmol/L; concentration at […] [10]: 980 nM; Cp(f) (Plasma [11]): 310 nM; concentration at […] [12]: 3700 nM
17 | COc1c(C)cc(C2(c3cccc(-c4cncnc4)c3)N=C(C)C(N)=N2)cc1C (configuration not stated) | 5.3 | 1.9 | 28 | –
18 | CC1=NC(c2ccc(F)cc2)(c2cccc(-c3cccnc3)c2)N=C1N (configuration not stated) | 4.9 | 2 | 41 | –
19 | COc1c(C)cc([C@]2(c3cccc(-c4cncnc4)c3)N=C(C)C(N)=N2)cc1C | – | 1.8 | 21 | –
20 | COc1ccc(C2(c3cccc(-c4cccnc4)c3)N=C(C)C(N)=N2)cc1 (configuration not stated) | 5.7 | 1.7 | 28 | Kp uu at […] [8]: 0.08; Drug uptake(free) (Brain [9]): 54 nmol/L; concentration at […] [10]: 710 nM; Cp(f) (Plasma [11]): 720 nM; concentration at […] [12]: 11500 nM
21 | CC(C)C1=NC(c2ccccc2)(c2cccc(-c3cncnc3)c2)N=C1N (configuration not stated) | 5.2 | 2.4 | 30 | –
22 | COc1ccc(C2(c3cccc(-c4cncnc4)c3)N=C(N)C(C(C)C)=N2)cc1 (configuration not stated) | 5.3 | 2.4 | 30 | –
23 | CC1=NC(c2cccc(-c3cncc(Cl)c3)c2)(C2CC2)N=C1N (configuration not stated) | – | 2 | 57 | Kp uu at […] [8]: 0.16; Drug uptake(free) (Brain [9]): 9 nmol/L; concentration at […] [10]: 180 nM; Cp(f) (Plasma [11]): 60 nM; concentration at […] [12]: 1200 nM
24 | COc1ccc(C2(c3cccc(-c4cncnc4)c3)N=C(C)C(N)=N2)cc1C (configuration not stated) | – | 1.7 | 19 | –

— ChEMBL document CHEMBL2177046, “New aminoimidazoles as β-secretase (BACE-1) inhibitors showing amyloid-β (Aβ) lowering in brain” (J Med Chem, 2012)
